Measurements published in US20220218757A1, “THERAPEUTICALLY ACTIVE CELLS AND EXOSOMES” (Cedars-Sinai Medical Center, priority 2019, published 2022).

Assays:
CDCs [1] = experiment: Flow cytometry of CD90, CD105, DDR2 and LRP5/6; format: cell-based, Human
Experimental: (§1) Cells were exposed to 5 μM of 6-bromoindirubin-3′-oxime (BIO, Sigma-Aldrich) or 4-Benzyl-2-(naphthalene-1-yl)-[1,2,4]thiadiazolidine-3,5-dione (Tideglusib, Sigma-Aldrich) for 48 or 72 hours in complete media.
Cells were harvested and counted (2×10^5 cells per condition). Cells were washed with 1% bovine serum albumin (BSA) in 1× phosphate-buffered saline (PBS) and stained with the appropriate antibody (BD Pharmingen) for 1 hr at 4° C. Cells were then washed again and resuspended in 1% BSA in 1×PBS. BD Cytofix/Cytoperm™ kit was used for cell permeabilization before staining. Flow analysis was done using a BD FACS Canto™ II instrument.

CDC EVs = experiment: qPCR of miRs in EVs from BIO-exposed versus vehicle-exposed CDCs; format: cell-based, Human; details: EVs of LP, LPL, imCDC exposed to BIO vs vehicle
Experimental: Extracellular Vesicles were harvested from primary CDCs at passage 5 or older passages from transduced cells using a hypoxic cycling method used previously. Briefly, cells were grown to confluence at 20% O2/5% CO2 at 37° C., and then cells were serum-free at 2% O2/5% CO2 at 37° C. overnight after one wash. Conditioned media was collected and filtered through 0.45 μm filter to remove apoptotic bodies and cellular debris and frozen for later use at −80° C. EVs were purified using centrifugal ultrafiltration with a 1000 KDa molecular weight cutoff filter (Sartorius). EV preparations were analyzed through Malvern Nanosight NS300 Instrument (Malvern Instruments) with the following acquisition parameters: camera levels of 15, detection level less than or equal to 5, number of videos taken 4, and video length of 30 s.
Cell RNA was isolated using a miRNeasy Mini Kit (Qiagen). Exosome RNA was isolated using the Urine Exosome RNA Isolation Kit (Norgen Biotek Corp.). Reverse transcription was performed using High Capacity RNA to cDNA (Thermo Fisher Scientific) or TaqMan® microRNA Reverse Transcription Kit (Applied Biosystems) for RNA and micro RNA, respectively. […] Samples were processed and analyzed using a QuantStudio™ 12K Flex Real-Time PCR system and each reaction was performed in triplicate samples (with housekeeping genes hprt1 for mRNA and miR23a for microRNA). […]

β-catenin = experiment: Total β-catenin ELISA of cells; format: cell-based, Human; details: for duration / decay of effect on β-catenin after GSK3β inhibition: CDCs, BIO (reversible) vs tideglusib (irreversible)
Experimental: (§2) Cell lysates were collected for ELISA and western blot. For ELISA, 4×10^5 cells were collected and pelleted at 1,000 rpm for 5 min at 4° C. Cell pellets were lysed in 1× lysis buffer (Affymetrix eBioscience InstantOne ELISA kit) and incubated for 10 min at room temperature with regular agitation. For western blot, cells were pelleted and resuspended in 1× RIPA buffer (Alfa Aesar) with protease inhibitor on ice for 30 min. Protein lysates were isolated by centrifugation at 14,000 rpm for 15 min at 4° C. Protein concentration was measured using a DC™ Protein Assay kit (Bio-Rad).
as §1
Total β-catenin ELISA was performed according the protocol described with a final sample concentration of 0.01 mg/ml and positive control of 0.1 mg/ml (Affymetrix eBioscience InstantOne™ ELISA).

EXTL1 = experiment: Western blot of EXTL1 protein; format: cell-based, Human; details: CDC (LP) exposure to BIO
Experimental: as §2

CDCs [2] = experiment: RNA sequencing and qPCR of BIO-exposed versus vehicle-exposed CDCs (LP, LPL, imCDC); format: cell-based, Human
Experimental: Cell RNA was isolated using a miRNeasy Mini Kit (Qiagen). Exosome RNA was isolated using the Urine Exosome RNA Isolation Kit (Norgen Biotek Corp.). Reverse transcription was performed using High Capacity RNA to cDNA (Thermo Fisher Scientific) or TaqMan® microRNA Reverse Transcription Kit (Applied Biosystems) for RNA and micro RNA, respectively. Real-time PCR was performed using TaqMan Fast Advanced Master Mix and the appropriate TaqMan® Gene Expression Assay (Thermo Fisher Scientific). Samples were processed and analyzed using a QuantStudio™ 12K Flex Real-Time PCR system and each reaction was performed in triplicate samples (with housekeeping genes hprt1 for mRNA and miR23a for microRNA). The gene expression assays/microRNAs used in this study were as follows (Thermo Fisher Scientific):
Cell and exosome RNA samples were sequenced at the Cedars Sinai Genomics Core. Total RNA and Small RNA were analyzed using an Illumina NextSeq 500 platform for cell and exosome samples respectively.
as §1
To understand how β-catenin drives potency, the transcriptomes of LP CDCs to those of the same cell batches after exposure to BIO were compared. As stated above, three scenarios associated with low potency were identified: donor-related, in which all lots from a given donor lack potency; lot-dependent, in which some lots are potent and others are not; and immortalized CDCs (imCDCs). Using RNA sequencing, LP cells from each scenario were compared after exposure to BIO versus vehicle alone. […] Differential expression of microRNAs (miRs) between the two groups further identified a cognate miR coregulated with mest (miR-335; FIG. 3C, FIGS. 9D and 9E). […] Mest modulates Wnt/β-catenin signaling indirectly through glucosyltransferases that prevent LRP5/6 receptor maturation. […]

[3] = tested on: SCID/beige mice with acute myocardial infarction; experiment: Mouse acute MI model (echocardiography, Masson's trichrome histology, mortality); format: in vivo; details: for myocardial function in mice with MI, drugs given independent of CDCs: relative to controls
Experimental: Acute myocardial infarction was induced in three-month-old male severe combined immunodeficient (SCID)/beige mice (n=5-7 animals per group). Within 10 min of coronary ligation, 1×10^5 cells, EVs, drugs (or vehicle) were injected intramyocardially.
Echocardiography. Echocardiography study was performed in the SCID/beige at 24 hr (baseline) and three weeks after surgery using Vevo 3100 or 770 Imaging System (Visual Sonics) as described. The average of the left ventricular ejection fraction was analyzed from multiple left ventricular end-diastolic and left ventricular end-systolic measurements.
Animals were sacrificed 3 weeks after MI induction. Hearts were harvested and a transverse cut was made slightly above the MI suture. The apical portion was then embedded in optimum cutting temperature solution in a base mold/embedding ring block (Tissue Tek). Blocks were immediately frozen by submersion in cold 2-methylbutane. Hearts were sectioned at a thickness of 5 μm.
Two slides containing a total of four sections per heart were stained using Masson's trichrome stain. In brief, sections were treated overnight in Bouin's solution. Slides were then rinsed for 10 min under running water and stained with Weigert's hematoxylin for 5 min. Slides were then rinsed and stained with scarlet-acid fuchsin for 5 min and rinsed again. Slides were then stained with phosphotungstic/phosphomolybdic, aniline blue, and 2% acetic acid for 5 min each. Slides were then rinsed, dried, and mounted using DPX mounting media.

immortalized CDCs = format: cell-based, Human
Experimental: as §1

Structure (SMILES)	expression of CD90 (CDCs [1]; BIO-exposed LP cells)	expression of CD105 (CDCs [1]; BIO-exposed LP cells)	expression of DDR2 (CDCs [1]; BIO-exposed LP cells)	LRP5/6 level (flow cytometry) (CDCs [1]; LP CDCs exposed to BIO)	EV levels of miR-335 (CDC EVs)	concentration at which BIO is maximally effective in CDCs (β-catenin ELISA) (β-catenin; CDCs exposed to increasing concentrations of BIO)	duration / decay of effect on β-catenin after GSK3β inhibition (β-catenin)	β-catenin levels (β-catenin; LP CDC line exposed to 5 μM BIO vs vehicle)	EXTL1 protein levels (EXTL1)	miR-335 expression in cells (CDCs [2]; BIO vs vehicle, LP, LPL and imCDC)	downregulation of mest (CDCs [2]; BIO vs vehicle, fold changes pooled over LP, LPL and imCDC)	LRP5/6 transcripts (CDCs [2]; BIO-exposed LP, LPL and imCDCs, qPCR)	potency of immortalized CDCs after exposure to BIO ([3]; imCDC pre-exposed to BIO, then injected)	myocardial function in mice with MI, drugs given independent of CDCs [3]	cell growth and viability (immortalized CDCs)
O=C1Nc2cc(Br)ccc2/C1=C1/Nc2ccccc2/C1=N\O [BIO, 6-bromoindirubin-3′-oxime]	decreased the expression of CD90	without affecting	without affecting	upregulated its glycosylation target LRP5/6 (although that difference was not statistically significant	decreased significantly	5 µM	more rapid decay of effect	increase β-catenin levels	decreased EXTL1 protein levels	downregulated	~30 fold	unchanged	restored potency	Neither BIO nor the canonical Wnt inhibitor JW67 significantly altered myocardial function	cell growth and viability were undermined
O=C1Nc2ccccc2C12OCC1(CO2)COC2(OC1)C(=O)Nc1ccccc12 (centres unmarked) [JW67]														Neither BIO nor the canonical Wnt inhibitor JW67 significantly altered myocardial function	
O=c1sn(-c2cccc3ccccc23)c(=O)n1Cc1ccccc1 [Tideglusib, 4-Benzyl-2-(naphthalene-1-yl)-[1,2,4]thiadiazolidine-3,5-dione]							directionally similar but longer-lasting effects								
